The results in this text go back to ChEMBL document CHEMBL1150573, “Three new triterpenes from the seeds of Combretum quadrangulare and their hepatoprotective activity” (J Nat Prod, 2001).

SMILES strings stand for the structures. Activity calls are given as the source filed them. No cut-off for these calls is given here.

Experiment [1] has as its system Hepatocyte. Kind of experiment: Hepatoprotective activity against D-galactosamine/TNFalpha-induced cell death in primary cultured mouse hepatocytes treated for 30 mins before TNFalpha challenge measured after 18 hrs by MTT assay. The experiment is classed as functional, cell-based. On the technique in general: Tetrazolium dyes change colour on reduction, which living cells bring about.

The subject of experiment [2] is Hepatocyte. Kind of experiment: Hepatoprotective activity against D-galactosamine/TNFalpha-induced cell death in primary cultured mouse hepatocytes assessed as cell viability at 100 uM treated for 30 mins before TNFalpha challenge measured after 18 hrs by MTT assay relative to normal hepatocytes. It is filed as functional. The following applies: read-out: Activity.

Experiment [3] has as its system Hepatocyte. The experiment is described as follows: Hepatoprotective activity against D-galactosamine/TNFalpha-induced cell death in primary cultured mouse hepatocytes assessed as cell viability at 50 uM treated for 30 mins before TNFalpha challenge measured after 18 hrs by MTT assay relative to normal hepatocytes. The following applies: read-out: Activity. The experiment is classed as functional.

Experiment [4] relates to Hepatocyte. The experiment is described as follows: Hepatoprotective activity against D-galactosamine/TNFalpha-induced cell death in primary cultured mouse hepatocytes assessed as cell viability at 25 uM treated for 30 mins before TNFalpha challenge measured after 18 hrs by MTT assay relative to normal hepatocytes. The experiment is classed as functional. The following applies: read-out: Activity.

Experiment [5] concerns Hepatocyte. Kind of experiment: Hepatoprotective activity against D-galactosamine/TNFalpha-induced cell death in primary cultured mouse hepatocytes at 100 uM treated for 30 mins before TNFalpha challenge measured after 18 hrs by MTT assay relative to control. The experiment is classed as functional.
Experiment [6] deals with Hepatocyte. Kind of experiment: Hepatoprotective activity against D-galactosamine/TNFalpha-induced cell death in primary cultured mouse hepatocytes at 50 uM treated for 30 mins before TNFalpha challenge measured after 18 hrs by MTT assay relative to control. It is filed as functional.
Experiment [7] has as its system Hepatocyte. The experiment is described as follows: Hepatoprotective activity against D-galactosamine/TNFalpha-induced cell death in primary cultured mouse hepatocytes at 25 uM treated for 30 mins before TNFalpha challenge measured after 18 hrs by MTT assay relative to control. It is filed as functional.

Turning to `C[C@@H]1CC[C@]2(C(=O)O[C@@H]3O[C@H](CO)[C@@H](O)[C@H](O)[C@H]3O)CC[C@]3(C)C(=CC[C@@H]4[C@@]5(C)C[C@@H](O)[C@H](O)[C@@](C)(CO)[C@@H]5CC[C@]43C)[C@@H]2[C@]1(C)O`, the result with Hepatocyte [1] was inactive.
As a reminder, the inhibition is the change of the read-out against control, counted positive when it falls. What is called IC50 is the concentration that inhibits the measured activity by half. A lower IC50 goes with greater potency. Regarding `C=C(C)[C@@H]1CC[C@]2(C(=O)O)CC[C@]3(C)[C@H](CC[C@@H]4[C@@]5(C)C[C@@H](O)[C@H](O)C(C)(C)[C@@H]5[C@H](O)C[C@]43C)[C@@H]12`, the viability at 100 µM in the experiment with Hepatocyte [2] is 47.6%. Moreover, the viability at 50 µM with Hepatocyte [3] is 28.4%. Also, the viability at 25 µM with Hepatocyte [4] is 22.2%. The inhibition at 100 µM with Hepatocyte [5] is 128%. Also, the inhibition at 50 µM with Hepatocyte [6] was 35.8%. The inhibition at 25 µM in the experiment on Hepatocyte [7] was 5.9%. The compound further returned an IC50 in the experiment with Hepatocyte [1] of 60.9 µM.
On to `C[C@H]1[C@H](C)CC[C@]2(C(=O)O[C@@H]3O[C@H](CO)[C@@H](O)[C@H](O)[C@H]3O)CC[C@]3(C)C(=CC[C@@H]4[C@@]5(C)C[C@@H](O)[C@H](O)[C@@](C)(CO)[C@@H]5CC[C@]43C)[C@H]12`, for which the outcome in the experiment with Hepatocyte [1] was inactive.
On the same count and under the same terms, the result for `CC1=C2C3=CC[C@@H]4[C@@]5(C)C[C@@H](O)[C@H](O)[C@@](C)(CO)[C@@H]5[C@H](O)C[C@@]4(C)[C@]3(C)CC[C@@]2(C(=O)O[C@@H]2O[C@H](CO)[C@@H](O)[C@H](O)[C@H]2O)CC[C@H]1C` reads “Active”.
Consider `CC1(C)[C@@H](O[C@H]2O[C@H](C(=O)O)[C@@H](O)[C@H](O)[C@H]2O[C@@H]2O[C@H](C(=O)O)[C@@H](O)[C@H](O)[C@H]2O)CC[C@]2(C)[C@H]3C(=O)C=C4[C@@H]5C[C@@](C)(C(=O)O)CC[C@]5(C)CC[C@@]4(C)[C@]3(C)CC[C@@H]12` [GLYCYRRHIZIN], for which the IC50 with Hepatocyte [1] was above 200 µM.
Turning to `CC1(C)CC[C@]2(C(=O)O)CC[C@]3(C)C(=CC[C@@H]4[C@@]5(C)C[C@@H](O)[C@H](O)[C@@](C)(CO)[C@@H]5CC[C@]43C)[C@@H]2C1` [ARJUNOLIC ACID], in the experiment on Hepatocyte [2], the viability at 100 µM came out at 43.6%. Further, in the experiment on Hepatocyte [3], the viability at 50 µM was found to be 28%. Further, the viability at 25 µM in the experiment with Hepatocyte [4] came to 24.9%. The inhibition at 100 µM with Hepatocyte [5] was found to be 108%. Moreover, the inhibition at 50 µM with Hepatocyte [6] amounted to 33.8%. In addition, the inhibition at 25 µM with Hepatocyte [7] worked out at 19.1%. This compound yielded an IC50 in the experiment with Hepatocyte [1] of 58.4 µM.
Regarding `C=C(C)[C@@H]1CC[C@]2(C(=O)O[C@@H]3O[C@H](CO)[C@@H](O)[C@H](O)[C@H]3O)CC[C@]3(C)[C@H](CC[C@@H]4[C@@]5(C)C[C@@H](O)[C@H](O)[C@@](C)(CO)[C@@H]5[C@H](O)C[C@]43C)[C@@H]12`, the result in the experiment on Hepatocyte [1] was Active.
As for `CC1(C)CC[C@]2(C(=O)O)CC[C@]3(C)C(=CC[C@@H]4[C@@]5(C)C[C@@H](O)[C@H](O)C(C)(C)[C@@H]5CC[C@]43C)[C@@H]2[C@@H]1O` [ARJUNIC ACID], the viability at 100 µM in the experiment with Hepatocyte [2] worked out at 27.8%. The viability at 50 µM in the experiment with Hepatocyte [3] worked out at 26.6%. Also, the viability at 25 µM in the experiment on Hepatocyte [4] came out at 26.5%. Also, the inhibition at 100 µM in the experiment on Hepatocyte [5] is 32.9%. Besides, the inhibition at 50 µM in the experiment with Hepatocyte [6] came out at 27%. Moreover, the inhibition at 25 µM in the experiment on Hepatocyte [7] was found to be 26.7%.
With `C[C@@H]1CC[C@]2(C(=O)O)CC[C@]3(C)C(=CC[C@@H]4[C@@]5(C)C[C@@H](O)[C@H](O)[C@@](C)(CO)[C@@H]5CC[C@]43C)[C@@H]2[C@]1(C)O`, in the experiment with Hepatocyte [1], the result was inactive.
In the case of `C=C(C)[C@@H]1CC[C@]2(C(=O)O[C@@H]3O[C@H](CO)[C@@H](O)[C@H](O)[C@H]3O)CC[C@]3(C)[C@H](CC[C@@H]4[C@@]5(C)C[C@@H](O)[C@H](O)C(C)(C)[C@@H]5[C@H](O)C[C@]43C)[C@@H]12`, the result in the experiment on Hepatocyte [1] was Active.
As to `CC1=C2C3=CC[C@@H]4[C@@]5(C)C[C@@H](O)[C@H](O)[C@@](C)(CO)[C@@H]5CC[C@@]4(C)[C@]3(C)CC[C@@]2(C(=O)O)CC[C@H]1C`, in the experiment on Hepatocyte [2], the viability at 100 µM stood at 51.5%. In the experiment with Hepatocyte [3], the viability at 50 µM came to 30.8%. Moreover, in the experiment with Hepatocyte [4], the viability at 25 µM came to 29.4%. In the experiment with Hepatocyte [5], the inhibition at 100 µM stood at 150%. Further, in the experiment on Hepatocyte [6], the inhibition at 50 µM came out at 47.4%. Besides, in the experiment on Hepatocyte [7], the inhibition at 25 µM was determined as 40.6%. In addition, in the experiment on Hepatocyte [1], the IC50 turned out to be 51 µM.
Consider `C=C(C)[C@@H]1CC[C@]2(C(=O)O)CC[C@]3(C)[C@H](CC[C@@H]4[C@@]5(C)C[C@@H](O)[C@H](O)[C@@](C)(CO)[C@@H]5[C@H](O)C[C@]43C)[C@@H]12`, for which, in the experiment with Hepatocyte [2], the viability at 100 µM turned out to be 36%. The viability at 50 µM in the experiment with Hepatocyte [3] amounted to 30.6%. The viability at 25 µM in the experiment on Hepatocyte [4] was 28.6%. The inhibition at 100 µM in the experiment on Hepatocyte [5] was determined as 71.7%. In addition, in the experiment with Hepatocyte [6], the inhibition at 50 µM was determined as 46.2%. For the same compound, the inhibition at 25 µM with Hepatocyte [7] is 36.4%. This compound yielded an IC50 with Hepatocyte [1] of 51.2 µM.
Turning to `COc1cc(C2Oc3cc([C@H]4Oc5cc(O)cc(O)c5C(=O)[C@@H]4O)ccc3OC2CO)ccc1O` (stereo not given in full) [SILIBININ], in the experiment with Hepatocyte [2], the viability at 100 µM is 47.9%. Also, the viability at 50 µM in the experiment with Hepatocyte [3] was determined as 35.1%. Further, the viability at 25 µM with Hepatocyte [4] worked out at 30.2%. In addition, the inhibition at 100 µM in the experiment with Hepatocyte [5] came out at 129%. The inhibition at 50 µM in the experiment on Hepatocyte [6] stood at 68.2%. Moreover, the inhibition at 25 µM in the experiment on Hepatocyte [7] is 44.9%. In the experiment on Hepatocyte [1], this compound had a 50% inhibitory concentration (IC50) of 29.9 µM.
For the compound `CC1(C)CC[C@]2(C(=O)O)CC[C@]3(C)C(=CC[C@@H]4[C@@]5(C)C[C@@H](O)[C@H](O)C(C)(C)[C@@H]5[C@H](O)C[C@]43C)[C@@H]2[C@@H]1O`, the viability at 100 µM with Hepatocyte [2] turned out to be 26.1%. Further, the viability at 50 µM in the experiment on Hepatocyte [3] was 24.7%. Moreover, the viability at 25 µM in the experiment on Hepatocyte [4] was found to be 24.2%. For the same compound, the inhibition at 100 µM in the experiment with Hepatocyte [5] worked out at 24.4%. Also, the inhibition at 50 µM with Hepatocyte [6] was 18%. Also, the inhibition at 25 µM with Hepatocyte [7] was 15.4%.
For the compound `CC[C@H](CC[C@@H](C)[C@H]1CC[C@H]2[C@@H]3CC=C4C[C@@H](O)CC[C@]4(C)[C@H]3CC[C@]12C)C(C)C` [BETA-SITOSTEROL], the viability at 100 µM in the experiment with Hepatocyte [2] amounted to 27.3%. For the same compound, the viability at 50 µM in the experiment with Hepatocyte [3] was found to be 26.4%. The viability at 25 µM with Hepatocyte [4] turned out to be 24.3%. In addition, the inhibition at 100 µM in the experiment on Hepatocyte [5] is 32.5%. Also, in the experiment on Hepatocyte [6], the inhibition at 50 µM was 28.1%. The inhibition at 25 µM in the experiment on Hepatocyte [7] was found to be 17.7%.
